Measurements taken from patent US9873883B2, “Glyphosate resistant plants and associated methods” (Dow AgroSciences LLC, priority 2012, dated 2018).

Assays:
[1] = biological target: T1, Brassica napus (canola) EPSP synthase DGT-3 (GENBANK P17688) variant DGT-3 v8 (T→I, P→S; TIPS) (Brassica napus, UniProt P17688, P178S/T174I); assay: In vitro kinetic assay (inorganic phosphate production, malachite green); format: biochemical
T1 construct: made in house; host or cells: E. coli Rosetta2 (DE3)
T1 sequence (P17688 73-516 T174I/P178S): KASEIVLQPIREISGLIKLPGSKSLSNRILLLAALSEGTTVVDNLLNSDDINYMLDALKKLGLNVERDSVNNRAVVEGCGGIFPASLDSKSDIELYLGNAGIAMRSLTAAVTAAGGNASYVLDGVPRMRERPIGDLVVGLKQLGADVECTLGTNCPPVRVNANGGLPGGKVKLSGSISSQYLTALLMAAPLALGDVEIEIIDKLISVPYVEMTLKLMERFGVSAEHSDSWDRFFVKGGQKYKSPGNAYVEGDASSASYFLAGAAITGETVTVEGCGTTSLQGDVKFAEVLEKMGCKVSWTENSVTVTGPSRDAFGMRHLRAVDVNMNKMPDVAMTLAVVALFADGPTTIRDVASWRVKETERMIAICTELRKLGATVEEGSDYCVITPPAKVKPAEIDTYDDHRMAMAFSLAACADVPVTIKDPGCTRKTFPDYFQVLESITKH
Text: (§1) The following Class I enzymes: DGT-1 from Glycine max, DGT-3 from Brassica napus (GENBANK ACC NO: P17688), and DGT-7 from Triticum aestivum (GENBANK ACC NO: EU977181) were used as a comparison. The Class I EPSP synthase enzymes and mutant variants thereof were synthesized and evaluated. A mutation introduced into the plant EPSP synthase enzymes consisted of the Glycine to Alanine mutation made within the EPSP synthase enzyme at a similar location as that of the G96A mutation from the E. coli version of the enzyme. In addition, Threonine to Isoleucine and Proline to Serine mutations were introduced within these Class I EPSP synthase enzymes at analogous positions as that of amino acid 97 (T to I) and amino acid 101 (P to S) in the EPSP synthase of E. coli as described in Funke et al., (2009).
(§2) The location of the amino acid residue which was mutated from glycine to alanine is indicated by the first asterisk. The location of the amino acid residue which was mutated from threonine to isoleucine is indicated by the second asterisk. The location of the third amino acid residue which was mutated from proline to serine is indicated by the third asterisk. These mutations were introduced into different versions of DGT-1, DGT-3, and DGT-7. The different versions of the genes which contain the mutations are described in more detail below.
(§3) Additional constructs containing the dgt-1, dgt-3 and dgt-7 were synthesized. These constructs were used for in vitro testing of the dgt-1 v5, dgt-1 v6, dgt-1 v7, dgt-1 v8, dgt-3 v6, dgt-3 v7, dgt-3 v8, dgt-7 v5, dgt-7 v6, dgt-7 v7, and dgt-7 v8 gene sequences were outsourced to GeneArt for synthesis and cloning. The synthesized genes were cloned into the pET28 expression vector. The resulting constructions were labeled as pDAB102028 containing dgt-1 v5, pDAB102029 containing dgt-1 v6, pDAB102032 containing dgt-1 v7, pDAB102034 containing dgt-1 v8, pDAB100429 containing dgt-3 v6, pDAB100442 containing dgt-3 v7, pDAB100430 containing dgt-3 v8, pDAB102036 containing dgt-7 v5, pDAB102038 containing dgt-7 v6, pDAB102040 containing dgt-7 v7, and pDAB102042 containing dgt-7 v8.
(§4) Recombinant DGT proteins were overexpressed in Rosetta2™ (DE3) cells (Novagen, Madison, Wis.) from the constructs described above. A single colony was used to inoculate 50 mL starter cultures of LB containing chloramphenicol (25 μg/mL) and kanamycin (50 μg/mL) which were cultivated overnight at 37° C. The overnight cultures were used to inoculate 1 L of LB containing chloramphenicol (25 μg/mL) and kanamycin (50 μg/mL). The cultures were grown at 37° C. to an O.D.600=0.6 then placed in an ice water bath for 10 minutes. Expression of the target proteins was achieved by addition of IPTG to a final concentration of 500 μM. Induction was allowed to proceed overnight at 20° C. followed by harvesting via centrifugation at 8,000 rpm for 20 minutes. The cell pellets were stored at −80° C. until required for purification. All purification steps were carried out at 4° C.
(§5) Cell pellets from 1 L cultures were resuspended in 20-30 mL Buffer A (50 mM HEPES pH 7.5, 150 mM KCl, 2 mM DTT, 1 mM EDTA, 20 mM imidazole, and 5% glycerol). COMPLETE™ protease inhibitor cocktail (1 tablet/50 mL, Roche, Indianapolis, Ind.) and lysozyme (1 mg/mL, Sigma-Aldrich, St. Louis, Mo.) were then added and the suspension was stirred for 20 minutes. Cell lysis was performed using a Branson Sonifier 250 (3×60 second bursts) followed by removal of the cell debris by centrifugation at 16,000 rpm for 45 minutes. DGT enzymes were purified to homogeneity in one step via immobilized metal affinity chromatography (IMAC) using a 5 mL HisTrap FF crude column. The column was equilibrated in Buffer A and the sample was loaded in the same buffer. The column was then washed with 10 column volumes of Buffer A followed by elution in a 0-100% Buffer B (50 mM HEPES pH 7.5, 200 mM KCl, 2 mM DTT, 1 mM EDTA, 500 mM imidazole, and 5% glycerol) linear gradient over 25 column volumes. […]

[2] = biological target: T2, Triticum aestivum (wheat) EPSP synthase DGT-7 variant DGT-7 v8 (T→I, P→S; TIPS) (Triticum aestivum, UniProt B5M6A1, P172S/T168I); assay: as above; format: biochemical
T2 construct: TIPS double mutant
T2 sequence (B5M6A1 with tags, fused parts or gaps T168I/P172S): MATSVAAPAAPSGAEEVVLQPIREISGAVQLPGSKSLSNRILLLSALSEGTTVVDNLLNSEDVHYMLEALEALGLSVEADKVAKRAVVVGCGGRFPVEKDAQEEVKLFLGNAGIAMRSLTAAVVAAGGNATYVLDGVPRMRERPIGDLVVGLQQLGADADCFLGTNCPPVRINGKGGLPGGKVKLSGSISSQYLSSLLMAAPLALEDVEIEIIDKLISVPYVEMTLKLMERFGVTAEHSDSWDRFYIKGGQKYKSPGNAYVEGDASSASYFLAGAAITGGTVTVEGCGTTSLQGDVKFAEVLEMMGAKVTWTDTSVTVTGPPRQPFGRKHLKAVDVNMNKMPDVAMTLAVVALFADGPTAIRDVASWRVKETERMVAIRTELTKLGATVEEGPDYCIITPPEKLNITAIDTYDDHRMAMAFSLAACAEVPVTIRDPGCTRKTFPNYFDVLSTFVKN
Text: as §1, §2, §3, §4, §5

[3] = IC50 (glyphosate), at 60 μM PEP
[4] = tolerance to glyphosate, PEP concentration not given

Row | SMILES | kcat/Km ([1]; PEP, pH 7.5, 1 mM S3P) [M⁻¹ s⁻¹] | kcat/Km ([2]; PEP, pH 7.5, 1 mM S3P) [M⁻¹ s⁻¹] | Km ([2]; read-out: Km for PEP, pH 7.5, 1 mM S3P) [µM] | IC50 [1, 3] [mM] | IC50 ([1]; IC50 (glyphosate), at 1 mM PEP) [mM] | IC50 [1, 4] [mM] | IC50 [2, 3] [mM] | IC50 ([2]; IC50 (glyphosate), at 1 mM PEP, values greater than 50 are estimates) [mM] | IC50 [2, 4] [mM]
1 | C=C(OP(=O)(O)O)C(=O)O [PEP, phosphoenolpyruvate] | 32900 | 13600 | 60 to 200 | – | – | – | – | – | –
2 | O=C(O)CNCP(=O)(O)O [glyphosate, N-(phosphonomethyl)glycine] | – | – | – | 4.8 | 13.3 | 3 to 6 | 3.6 | > 80 | 3 to 6
